Molecules are shown by their SMILES.

One assay deals with Glutamate NMDA receptor; GRIN1/GRIN2A (Homo sapiens) (UniProt Q05586+Q12879). Description: Blockade of human recombinant NR1/NR2A expressed in xenopus oocytes assessed as inhibition of L-glutamate/glycine-induced whole-cell current at 10 uM at holding potential of -60 mV by electrophysiological assay relative to control. As to conditions: Oocyte. The assay is classed as cell-based.
For `NC(=O)[C@H](Cc1c(Sc2ncccc2[N+](=O)[O-])[nH]c2ccccc12)N1C(=O)N[C@@H](CCCN=C(N)N)C1=O`, the inhibition – broadly, the relative decrease from the control value, in per cent – was found to be 24.2%.

`NC(=O)[C@H](Cc1c(Sc2ccccc2[N+](=O)[O-])[nH]c2ccccc12)N1C(=O)N[C@@H](CCN=C(N2CCCC2)N2CCCC2)C1=O`: the inhibition amounted to 12%.

For `NC[C@@H]1NC(=O)N([C@@H](Cc2c(Sc3ccccc3[N+](=O)[O-])[nH]c3ccccc23)C(N)=O)C1=O`, the inhibition came out at 18.4%.

As to `NCC[C@@H]1NC(=O)N([C@@H](Cc2c(Sc3ccccc3[N+](=O)[O-])[nH]c3ccccc23)C(N)=O)C1=O`, the inhibition amounted to 16%.

For the compound `NCCCC[C@H](N)C(=O)N[C@@H](Cc1c(Sc2ccccc2[N+](=O)[O-])[nH]c2ccccc12)C(N)=O`, the inhibition turned out to be 13.5%.

As to `NCC[C@H](N)C(=O)N[C@@H](Cc1c(Sc2ccccc2[N+](=O)[O-])[nH]c2ccccc12)C(N)=O`, the inhibition came to 29.7%.

`NCCCC[C@H](N)C(=O)N[C@@H](Cc1c(Sc2ncccc2[N+](=O)[O-])[nH]c2ccccc12)C(N)=O`: the inhibition came out at 23.6%.

Take `CC(=O)N[C@@H](CCCCN=C(N1CCCC1)N1CCCC1)C(=O)N[C@@H](Cc1c(Sc2ccccc2[N+](=O)[O-])[nH]c2ccccc12)C(N)=O`: the inhibition was 6.4%.

As for `CN(C)C(=NCCCC[C@@H]1NC(=O)N([C@@H](Cc2c(Sc3ncccc3[N+](=O)[O-])[nH]c3ccccc23)C(N)=O)C1=O)N(C)C`, the inhibition worked out at 10.8%.

As to `CC(=O)N[C@@H](CCCCN)C(=O)N[C@@H](Cc1c(Sc2ccccc2[N+](=O)[O-])[nH]c2ccccc12)C(N)=O`, the inhibition turned out to be 15.4%.

Take `NC(=O)[C@H](Cc1c(Sc2ccccc2[N+](=O)[O-])[nH]c2ccccc12)N1C(=O)N[C@@H](CCCN=C(N)N)C1=O`: the inhibition turned out to be 20.2%.

In the case of `C[N+](C)(C)CCCC[C@H](N)C(=O)N[C@@H](Cc1c(Sc2ccccc2[N+](=O)[O-])[nH]c2ccccc12)C(N)=O`, the inhibition is 5.5%.

`CC(=O)N[C@@H](CCN=C(N1CCCC1)N1CCCC1)C(=O)N[C@@H](Cc1c(Sc2ccccc2[N+](=O)[O-])[nH]c2ccccc12)C(N)=O`: the inhibition was found to be 9.6%.

Turning to `CC(=O)N[C@@H](CCCCN)C(=O)N[C@@H](Cc1c(Sc2ncccc2[N+](=O)[O-])[nH]c2ccccc12)C(N)=O`, the inhibition was determined as 13.6%.

In the case of `NCCCC[C@@H]1NC(=O)N([C@@H](Cc2c(Sc3ncccc3[N+](=O)[O-])[nH]c3ccccc23)C(N)=O)C1=O`, the inhibition was determined as 26.8%.

As to `CC(=O)N[C@@H](CN=C(N1CCCC1)N1CCCC1)C(=O)N[C@@H](Cc1c(Sc2ccccc2[N+](=O)[O-])[nH]c2ccccc12)C(N)=O`, the inhibition is 30.3%.

On to `NC(=O)[C@H](Cc1c(Sc2ncccc2[N+](=O)[O-])[nH]c2ccccc12)NC(=O)[C@@H](N)CCCN=C(N)N`, for which the inhibition was determined as 20.6%.

Regarding `C[N+](C)(C)CCCC[C@@H]1NC(=O)N([C@@H](Cc2c(Sc3ncccc3[N+](=O)[O-])[nH]c3ccccc23)C(N)=O)C1=O`, the inhibition stood at 20.6%.

For the compound `C[N+](C)(C)CCCC[C@@H]1NC(=O)N([C@@H](Cc2c(Sc3ccccc3[N+](=O)[O-])[nH]c3ccccc23)C(N)=O)C1=O`, the inhibition is 9.2%.

The next assay deals with Transient receptor potential cation channel subfamily V member 1 (Rattus norvegicus) (UniProt O35433). Description: Blockade of rat recombinant TRPV1 expressed in xenopus oocytes assessed as inhibition of capsaicin-induced whole-cell current at 1 uM at holding potential of -60 mV by electrophysiological assay relative to control. Format: cell-based. Conditions: Oocyte.
Chain of Transient receptor potential cation channel subfamily V member 1 (Rattus norvegicus) (O35433 whole entry): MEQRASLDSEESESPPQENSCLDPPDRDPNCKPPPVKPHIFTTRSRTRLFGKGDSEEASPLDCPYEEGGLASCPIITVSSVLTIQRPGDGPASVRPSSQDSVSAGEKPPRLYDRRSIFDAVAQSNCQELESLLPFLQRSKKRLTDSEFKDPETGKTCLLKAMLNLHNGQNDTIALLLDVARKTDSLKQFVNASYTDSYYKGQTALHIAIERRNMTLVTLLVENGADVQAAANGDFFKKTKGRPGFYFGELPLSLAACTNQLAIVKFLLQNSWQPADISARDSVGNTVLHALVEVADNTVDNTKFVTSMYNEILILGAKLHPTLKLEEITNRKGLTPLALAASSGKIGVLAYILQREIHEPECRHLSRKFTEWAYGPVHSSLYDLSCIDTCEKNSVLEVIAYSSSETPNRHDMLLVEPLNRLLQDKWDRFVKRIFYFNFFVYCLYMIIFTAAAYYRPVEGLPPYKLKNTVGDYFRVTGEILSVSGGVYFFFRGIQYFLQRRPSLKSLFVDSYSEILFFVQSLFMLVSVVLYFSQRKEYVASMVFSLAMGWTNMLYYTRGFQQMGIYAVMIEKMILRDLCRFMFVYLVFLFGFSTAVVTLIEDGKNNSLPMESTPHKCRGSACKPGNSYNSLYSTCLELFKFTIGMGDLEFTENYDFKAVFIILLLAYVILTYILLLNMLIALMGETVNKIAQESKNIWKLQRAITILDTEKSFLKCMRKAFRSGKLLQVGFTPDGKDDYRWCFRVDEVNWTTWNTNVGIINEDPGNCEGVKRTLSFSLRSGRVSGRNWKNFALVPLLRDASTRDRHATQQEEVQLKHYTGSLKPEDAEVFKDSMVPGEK
With `C[N+](C)(C)CCCC[C@@H]1NC(=O)N([C@@H](Cc2c(Sc3ccccc3[N+](=O)[O-])[nH]c3ccccc23)C(N)=O)C1=O`, the inhibition was found to be 17.4%.

For another assay the target is unchanged. Description: Blockade of rat recombinant TRPV1 expressed in xenopus oocytes assessed as inhibition of capsaicin-induced whole-cell current at 10 uM at holding potential of -60 mV by electrophysiological assay relative to control. The assay is classed as cell-based. Conditions: Oocyte.
Take `NC(=O)[C@H](Cc1c(Sc2ncccc2[N+](=O)[O-])[nH]c2ccccc12)N1C(=O)N[C@@H](CCCN=C(N)N)C1=O`: the inhibition came to 54.3%.

Turning to `NC(=O)[C@H](Cc1c(Sc2ccccc2[N+](=O)[O-])[nH]c2ccccc12)N1C(=O)N[C@@H](CCN=C(N2CCCC2)N2CCCC2)C1=O`, the inhibition is 56.3%.

For the compound `NC[C@@H]1NC(=O)N([C@@H](Cc2c(Sc3ccccc3[N+](=O)[O-])[nH]c3ccccc23)C(N)=O)C1=O`, the inhibition worked out at 29.9%.

`NCC[C@@H]1NC(=O)N([C@@H](Cc2c(Sc3ccccc3[N+](=O)[O-])[nH]c3ccccc23)C(N)=O)C1=O`: the inhibition was 11%.

Take `NCCCC[C@H](N)C(=O)N[C@@H](Cc1c(Sc2ccccc2[N+](=O)[O-])[nH]c2ccccc12)C(N)=O`: the inhibition is 26.3%.

As to `NCC[C@H](N)C(=O)N[C@@H](Cc1c(Sc2ccccc2[N+](=O)[O-])[nH]c2ccccc12)C(N)=O`, the inhibition amounted to 20.6%.

On to `NCCCC[C@H](N)C(=O)N[C@@H](Cc1c(Sc2ncccc2[N+](=O)[O-])[nH]c2ccccc12)C(N)=O`, for which the inhibition came out at 17%.

Turning to `CC(=O)N[C@@H](CCCCN=C(N1CCCC1)N1CCCC1)C(=O)N[C@@H](Cc1c(Sc2ccccc2[N+](=O)[O-])[nH]c2ccccc12)C(N)=O`, the inhibition is 44%.

On to `CN(C)C(=NCCCC[C@@H]1NC(=O)N([C@@H](Cc2c(Sc3ncccc3[N+](=O)[O-])[nH]c3ccccc23)C(N)=O)C1=O)N(C)C`, for which the inhibition is 40.9%.

Turning to `CC(=O)N[C@@H](CCCCN)C(=O)N[C@@H](Cc1c(Sc2ccccc2[N+](=O)[O-])[nH]c2ccccc12)C(N)=O`, the inhibition was found to be 14.3%.

`NC(=O)[C@H](Cc1c(Sc2ccccc2[N+](=O)[O-])[nH]c2ccccc12)N1C(=O)N[C@@H](CCCN=C(N)N)C1=O`: the inhibition is 50.2%.

With `C[N+](C)(C)CCCC[C@H](N)C(=O)N[C@@H](Cc1c(Sc2ccccc2[N+](=O)[O-])[nH]c2ccccc12)C(N)=O`, the inhibition was 36.7%.

For the compound `CC(=O)N[C@@H](CCN=C(N1CCCC1)N1CCCC1)C(=O)N[C@@H](Cc1c(Sc2ccccc2[N+](=O)[O-])[nH]c2ccccc12)C(N)=O`, the inhibition is 42.4%.

For the compound `CC(=O)N[C@@H](CCCCN)C(=O)N[C@@H](Cc1c(Sc2ncccc2[N+](=O)[O-])[nH]c2ccccc12)C(N)=O`, the inhibition is 12.7%.

Regarding `NCCCC[C@@H]1NC(=O)N([C@@H](Cc2c(Sc3ncccc3[N+](=O)[O-])[nH]c3ccccc23)C(N)=O)C1=O`, the inhibition was 24.6%.

As for `CC(=O)N[C@@H](CN=C(N1CCCC1)N1CCCC1)C(=O)N[C@@H](Cc1c(Sc2ccccc2[N+](=O)[O-])[nH]c2ccccc12)C(N)=O`, the inhibition came out at 49.9%.

With `NC(=O)[C@H](Cc1c(Sc2ncccc2[N+](=O)[O-])[nH]c2ccccc12)NC(=O)[C@@H](N)CCCN=C(N)N`, the inhibition is 44.8%.

Consider `C[N+](C)(C)CCCC[C@@H]1NC(=O)N([C@@H](Cc2c(Sc3ncccc3[N+](=O)[O-])[nH]c3ccccc23)C(N)=O)C1=O`, for which the inhibition was found to be 19.9%.

Consider `C[N+](C)(C)CCCC[C@@H]1NC(=O)N([C@@H](Cc2c(Sc3ccccc3[N+](=O)[O-])[nH]c3ccccc23)C(N)=O)C1=O`, for which the inhibition came out at 66.5%.

For the origin of these results see ChEMBL document CHEMBL1777688, “TRPV1 modulators: structure-activity relationships using a rational combinatorial approach” (Bioorg Med Chem Lett, 2011).
